Where two headings read alike, the source gives them in different places.
Test: Second sacrificial agent testing protocol: paste air measurements with DDBS (0.0125 wt %) and rating; for Overall performance rating (second protocol rating): key: 0: Fail; 1: Poor; 2: Good; 3: Preferred; 4: Most preferred; for SA Rating (0-4): key: 0: Fail; 1: Poor; 2: Good; 3: Preferred; 4: Most preferred
Procedure: The second sacrificial agents evaluation protocol has been designed to assess the relative potential value of candidate sacrificial agents with a maximum of five paste air measurements.
The first two measurements (of entrained air) are carried out with a standard AEA in a portland cement paste and in a FA:cement paste; these two tests provide reference values which can be used for the relative assessment of a series of sacrificial agents. The other three paste air measurements pertain to the properties and effectiveness of the sacrificial agents.
1. Measurement of the air entrained by a standard air-entraining admixture in a cement paste of fixed composition and fluidity; the latter is a reference system which provides ‘reference’ air entrainment values (‘A’ in FIG. 8).
2. […] The difference between ‘B’ and ‘A’ in FIG. 8 is the reduction in air entrainment due to the presence of the fly ash; this is illustrated as ‘C’ in FIG. 8.
In the present SA testing and evaluation protocol, the fly ash selected should remain the same for the entire set of additives tested, in order to provide reliable relative performance ranking. For the present series of test, the Fly Ash selected was the one identified as B1 in Table 1 below; the physico-chemical properties of this fly ash are reported in Table 1.
In testing for the relative performance of the sacrificial agent, the sacrificial agent dosage was chosen in the range 0-0.1 wt %, which corresponds to typical dosage values observed in paste, mortar and concrete tests reported in Tables 2, 3 and 4 and Tables 7 to 34.
3. Measurement of the air entrainment of the SA, by itself, in a cement-only paste at a dosage of 0.1 wt %; this is illustrated as ‘D’ in FIG. 8.
4. Measurement of the air entrained by DDBS in the FA-cement paste comprising 0.05% wt SA, under the same conditions as described in 2 above. The air entrainment value observed in this system, compared to that observed in the absence of the SA, yields the air recovery due to the SA, and is illustrated schematically as ‘E’ in FIG. 8.
5. Same as in 4 above, but with a higher SA concentration at 0.1 wt %; the air entrainment observed, again compared to the value observed in the absence of the SA, yields a second value of air recovery by the SA and is illustrated as ‘F’ in FIG. 8.
For the relative performance rating of the group of products chosen as potential SA and listed in Table 36, the following rating scheme (Tables A and B) was adopted (referring to FIG. 8 and quantities defined therein):
1: Chemical name of compound tested as potential sacrificial agent • Col. 2: Level of air entrainment by the candidate sacrificial agent, at a concentration of 0.1 wt %, in a Portland cement paste ([…]) • Col. […] 5: Sacrificial agent overall rating index (described below) • Col. 6: Hydrophilic-Lipophilic Balance (HLB) values of candidate sacrificial agent (source and significance of HLB data given below) • Col. 7: Logarithm of the Oil(octanol)/water partition coefficient (Kow) of the candidate sacrificial agents (source and significance of data given below).

[1] = B1 FA/cement paste, 0.0125 wt % DDBS, 0.05 wt % SA
[2] = B1 FA/cement paste, 0.0125 wt % DDBS, 0.10 wt % SA
[3] = Portland cement paste (PCA), […]
[4] = sacrificial agent overall rating index
[5] = sum of ratings of air entrainment recovery by 0.05% and 0.1% SA, DDBS 0.0125 wt %, 50:50 B1 fly ash:cement paste

| SMILES | B1 + 0.0125% DDBS + 0.05% SA (air entrainment) [1] | B1 + 0.0125% DDBS + 0.1% SA (air entrainment) [2] | PCA + 0.1% SA (level of air entrainment by the candidate sacrificial agent) [3] | SA Rating (0-4) [4] | Overall performance rating (second protocol rating) [5] | B1 + 0.0125% DDBS + 0.05% SA (air entrainment) (B1 FA/cement paste, […]) | B1 + 0.0125% DDBS + 0.1% SA (air entrainment) (B1 FA/cement paste, […]) | other results |
| --- | --- | --- | --- | --- | --- | --- | --- | --- |
| CCC(C)=O [2-Butanone] |  |  |  |  |  |  |  | Overall performance rating (second protocol rating): 1 |
| O=C(O)c1ccc2ccccc2c1 [2-Naphthoic acid] | 3.2 | 4.2 | 1.3 | 1 | 1 |  |  |  |
| CCC(O)CC [3-Pentanol] | 6.1 | 6.3 | 0.5 | 4 | 4 |  |  |  |
| CCc1ccc(S(=O)(=O)O)cc1 [4-Ethyl benzene sulfonic acid] | 4.8 | 6.2 | 1.3 | 3 | 3 |  |  |  |
| O=S(=O)(O)c1ccc(O)cc1 [4-Hydroxybenzenesulfonic acid] | 2.1 | 2.0 | 0.1 | 0 |  |  |  |  |
| O=C(O)c1ccc(O)cc1 [4-Hydroxybenzoic acid] |  |  | 1.0 | 0 |  | 2.1 | 2.4 |  |
| CC#N [Acetonitrile] |  |  | 0.5 | 0 |  | 2.3 | 2.5 |  |
| O=C(O)CCCCC(=O)O [Adipic acid] |  |  | 0.2 | 0 |  | 1.9 | 2.2 |  |
| CC1=CCC2CC1C2(C)C (stereo not drawn) [Alpha-Pinene] |  |  | 0.4 | 0 |  | 2.4 | 2.9 |  |
| Nc1ccccc1 [Aniline] |  |  |  |  | 2 |  |  |  |
| OCc1ccccc1 [Benzyl alcohol] | 4.1 | 5.4 | 0.6 | 3 | 3 |  |  |  |
| C[N+](C)(C)Cc1ccccc1.[OH-] [Benzyltrimethyl ammonium hydroxide] | 2.3 | 3.0 |  | 0 |  |  |  | PCA + 0.1% SA (level of air entrainment by the candidate sacrificial agent) (Portland cement paste (PCA), 0.1 wt % SA, no DDBS): 1.0 |
| CCCC=O [Butyraldehyde] |  |  | 0.0 | 2 |  | 4.0 | 4.0 | Overall performance rating (second protocol rating): 2 |
| OCCNCCO [Di-ethanolamine] |  |  | 0.3 | 0 |  | 2.7 | 2.6 |  |
| CC(O)CNCC(C)O (stereo not shown) [Di-isopropanolamine] |  |  |  |  |  |  |  | B1 + 0.0125% DDBS + 0.05% SA (air entrainment): 4.6; B1 + 0.0125% DDBS + 0.1% SA (air entrainment): 5.5; Overall performance rating (second protocol rating): 3; PCA + 0.1% SA (level of air entrainment by the candidate sacrificial agent): 1.1; SA Rating (0-4): 3 |
| COC(=O)CC(=O)OC [Dimethyl malonate] |  |  | 0.2 | 0 |  | 2.5 | 2.6 |  |

From US7892350B2, “Sacrificial agents for fly ash concrete” (Boral Material Technologies Inc., priority 2003, dated 2011)
